Measured values: ChEMBL document CHEMBL1137435, “Synthesis and application of 2'-fluoro-substituted cap analogs” (Bioorg Med Chem Lett, 2007)

test: Capping efficiency on mRNA after 2 hrs by gel shift assay

| SMILES | Activity [%] |
| --- | --- |
| C[n+]1cn([C@H]2O[C@@H](COP(=O)([O-])OP(=O)(O)OP(=O)(O)OC[C@H]3O[C@@H](n4cnc5c(=O)[nH]c(N)nc54)[C@H](O)[C@@H]3O)[C@H](O)[C@@H]2O)c2nc(N)[nH]c(=O)c21 | 61 |
| C[n+]1cn([C@H]2O[C@@H](COP(=O)([O-])OP(=O)(O)OP(=O)(O)OC[C@H]3O[C@@H](n4cnc5c(=O)[nH]c(N)nc54)[C@H](O)[C@@H]3O)[C@H](O)[C@@H]2F)c2nc(N)[nH]c(=O)c21 | 70 |
| C[n+]1cn([C@@H]2O[C@H](COP(=O)([O-])OP(=O)([O-])OP(=O)(O)OC[C@@H]3O[C@H](n4c[n+](C)c5c(=O)[nH]c(N)nc54)[C@@H](F)[C@H]3O)[C@@H](O)[C@H]2O)c2nc(N)[nH]c(=O)c21 | 52 |
